From ChEMBL document CHEMBL5303304, “EUbOPEN Chemogenomics Library - IncuCyte” (2023)

Tests used:
Assay type in all cases: toxicity, cell-based
HEK-293T = test: Incucyte cell viability with HEK293T; settings: human, 10 µM, compound concentration 10 uM
Fibroblast = test: Incucyte cell viability with human fibroblast; settings: 10 µM, compound concentration 10 uM
U2OS = test: Incucyte cell viability with U2OS; settings: human, 10 µM, compound concentration 10 uM
Note: unitless GR value; below 1 slowed growth and below 0 cell loss.

Structure (SMILES) | Growth Rate (HEK-293T; 0 h, replicate number 2) | Growth Rate (Fibroblast; 0 h, replicate number 1) | Growth Rate (Fibroblast; 6 h, replicate number 2) | Growth Rate (Fibroblast; 12 h, replicate number 1) | Growth Rate (Fibroblast; 12 h, replicate number 2) | Growth Rate (Fibroblast; 18 h, replicate number 1) | Growth Rate (Fibroblast; 18 h, replicate number 2) | Growth Rate (Fibroblast; 24 h, replicate number 1) | Growth Rate (Fibroblast; 24 h, replicate number 2) | Growth Rate (U2OS; 0 h, replicate number 1) | Growth Rate (U2OS; 6 h, replicate number 1) | Growth Rate (U2OS; 6 h, replicate number 2) | Growth Rate (U2OS; 12 h, replicate number 2) | Growth Rate (U2OS; 18 h, replicate number 1) | Growth Rate (U2OS; 18 h, replicate number 2) | Growth Rate (U2OS; 24 h, replicate number 1) | Growth Rate (U2OS; 24 h, replicate number 2) | Growth Rate (HEK-293T; 6 h, replicate number 1) | Growth Rate (HEK-293T; 12 h, replicate number 1) | Growth Rate (HEK-293T; 24 h, replicate number 2) | further results
CCOC(=O)CS(=O)(=O)c1ccc([C@@H](CO)NC(=O)c2cc3c(Cl)c(Cl)c(C)cc3n2C)cc1 | 0.13 | -1 | -1 | -0.98 | -0.95 | -0.91 | -0.85 | -0.81 | -0.7 | -0.21 | -0.2 | 1 | 0.52 | -0.31 | 0.87 | -0.16 | 0.97 | – | – | – | Growth Rate (U2OS; 12 h, replicate number 1): -0.25
CCCCCCC(Sc1nc(Cl)cc(NCc2ccc(-c3ccccc3)cc2)n1)C(=O)O (stereo not given) | – | – | – | – | – | – | – | 0.91 | – | 0.82 | – | – | 0.97 | – | – | 0.94 | 0.96 | – | – | – | Growth Rate (HEK-293T; 0 h, replicate number 1): 0.04; Growth Rate (Fibroblast; 0 h, replicate number 2): -0.63; Growth Rate (U2OS; 12 h, replicate number 1): 0.89
O=C(O)C[C@H]1CCn2c1c(Sc1ccc(Cl)cc1)c1ccc(F)cc12 | -0.28 | -1 | 0.42 | – | 0.4 | – | 0.97 | 0.89 | 0.83 | – | – | – | – | – | – | 0.94 | – | 0.76 | 0.96 | 0.78 | Growth Rate (HEK-293T; 0 h, replicate number 1): 0.01; Growth Rate (HEK-293T; 12 h, replicate number 2): 0.99; Growth Rate (HEK-293T; 18 h, replicate number 2): 0.93; Growth Rate (HEK-293T; 24 h, replicate number 1): 0.92
Cc1cc(Nc2ncc(Cl)c(Nc3ccccc3S(=O)(=O)C(C)C)n2)c(OC(C)C)cc1C1CCNCC1 [CERITINIB] | – | -0.31 | -1 | -1 | -0.99 | -0.92 | -0.93 | -0.63 | -0.84 | 0.45 | -0.98 | -0.96 | -0.82 | -0.64 | -0.68 | -0.57 | -0.61 | -0.91 | -0.6 | -0.26 | Growth Rate (HEK-293T; 6 h, replicate number 2): -0.87; Growth Rate (HEK-293T; 12 h, replicate number 2): -0.49; Growth Rate (HEK-293T; 18 h, replicate number 1): -0.4; Growth Rate (HEK-293T; 18 h, replicate number 2): -0.35; Growth Rate (HEK-293T; 24 h, replicate number 1): -0.33; Growth Rate (U2OS; 12 h, replicate number 1): -0.79
COc1ccc(-n2nc(C(F)(F)F)cc2-c2ccc(Cl)cc2)cc1 [SC-560] | 0.61 | -1 | -0.87 | 0.59 | 0.09 | 0.62 | 0.54 | 0.68 | 0.62 | – | 0.67 | 0.83 | 0.86 | – | 0.95 | – | 0.98 | – | – | 0.9 | Growth Rate (HEK-293T; 0 h, replicate number 1): 0.2; Growth Rate (HEK-293T; 6 h, replicate number 2): 0.8; Growth Rate (Fibroblast; 6 h, replicate number 1): 0.63
COC(=O)c1ccc2c(c1)NC(=O)/C2=C(\Nc1ccc(N(C)C(=O)CN2CCN(C)CC2)cc1)c1ccccc1 [NINTEDANIB] | – | 0.43 | – | – | – | – | – | 0.4 | – | 0.64 | -0.05 | – | – | 0.97 | – | – | 0.99 | -0.42 | 0.57 | – | Growth Rate (Fibroblast; 0 h, replicate number 2): -0.14; Growth Rate (U2OS; 0 h, replicate number 2): 0.08
CC(C)(c1ccc(O)cc1)c1ccc(O)cc1 [BISPHENOL A] | – | – | -0.05 | 0.37 | 0.83 | – | 0.7 | 0.57 | – | – | – | – | 1 | – | – | – | 0.96 | 0.82 | – | – | –
COc1ccc(Br)cc1S(=O)(=O)NC(=O)/C=C/c1cc(Cl)ccc1Cc1ccc2ccccc2c1 | 0.17 | – | -0.77 | 0.99 | 0.22 | 0.99 | 0.56 | 0.91 | 0.39 | – | – | – | – | – | 0.86 | – | – | – | – | 0.94 | Growth Rate (HEK-293T; 0 h, replicate number 1): 0.03; Growth Rate (HEK-293T; 18 h, replicate number 2): 0.99; Growth Rate (Fibroblast; 0 h, replicate number 2): -0.66; Growth Rate (Fibroblast; 6 h, replicate number 1): 0.77
C[S+]([O-])c1ccc(-c2nc(-c3cccc(I)c3)c(-c3ccncc3)[nH]2)cc1 (stereo not given) | -1 | – | 0.66 | – | – | – | – | – | – | -0.99 | – | 0.79 | 0.8 | 0.97 | 0.75 | 1 | 0.65 | – | 0.87 | – | Growth Rate (HEK-293T; 0 h, replicate number 1): -0.57; Growth Rate (HEK-293T; 18 h, replicate number 1): 0.99; Growth Rate (HEK-293T; 24 h, replicate number 1): 0.99
OC(c1ccc(-c2ccc(CN3CCN(Cc4ccncc4)CC3)cc2)c(F)c1)(C(F)(F)F)C(F)(F)F | -0.93 | 0.65 | -0.55 | 0.07 | -0.38 | 0.24 | -0.18 | 0.39 | -0.02 | 0.44 | 0.85 | 0.88 | – | 0.93 | 0.78 | – | 0.71 | -0.1 | -0.03 | 0.29 | Growth Rate (HEK-293T; 6 h, replicate number 2): 0.22; Growth Rate (HEK-293T; 12 h, replicate number 2): 0.08; Growth Rate (HEK-293T; 18 h, replicate number 1): 0.02; Growth Rate (HEK-293T; 18 h, replicate number 2): 0.23; Growth Rate (HEK-293T; 24 h, replicate number 1): 0.09; Growth Rate (Fibroblast; 6 h, replicate number 1): -0.31; Growth Rate (U2OS; 12 h, replicate number 1): 0.84
C=CC(=O)Nc1cccc(C)c1Nc1ncc2cc(-c3c(Cl)c(OC)cc(OC)c3Cl)ccc2n1 | – | – | -0.2 | 0.12 | 0.44 | 0.03 | 0.44 | 0.05 | 0.33 | -0.45 | 0.45 | 0.31 | 0.5 | 0.32 | 0.42 | 0.38 | 0.4 | -0.39 | -0.35 | -0.26 | Growth Rate (HEK-293T; 6 h, replicate number 2): -0.56; Growth Rate (HEK-293T; 12 h, replicate number 2): -0.45; Growth Rate (HEK-293T; 18 h, replicate number 1): -0.32; Growth Rate (HEK-293T; 18 h, replicate number 2): -0.41; Growth Rate (HEK-293T; 24 h, replicate number 1): -0.21; Growth Rate (Fibroblast; 6 h, replicate number 1): -0.64; Growth Rate (U2OS; 0 h, replicate number 2): 0.38; Growth Rate (U2OS; 12 h, replicate number 1): 0.25
